Reference: ChEMBL document CHEMBL1157539, “Thousands of chemical starting points for antimalarial lead identification” (Nature, 2010)

System: Plasmodium falciparum
Experiment: GSK_TCMDC: Inhibition of Plasmodium falciparum 3D7 in whole erythrocytes, using parasite LDH activity as an index of growth.
Type: functional, organism-based
Settings: Plasmodium falciparum, 3D7

O=C(N/C(=C/c1cccc([N+](=O)[O-])c1)c1nc2ccccc2[nH]1)c1cccc(Br)c1
XC50: 616 nM

O=C(/C=C/c1ccc(Cl)c(Cl)c1)NCCCCCN1CCCN(C(=O)Nc2cccc(Cl)c2)CC1
XC50: 669 nM

Cc1ccc(S(=O)(=O)N2CCN(C(=O)c3cc(-c4ccccc4)n[nH]3)CC2)cc1
XC50: 603 nM

CC(C)CCN(Cc1cncn1Cc1cccc(Cl)c1)C(=O)c1cncc(-c2ccccc2)c1
XC50: 762 nM

CCOC(=O)c1cc(C(=O)NCCCCN2CCC(c3ccc(CC)cc3OCC)CC2)ccc1-c1ccc(C(F)(F)F)cc1
XC50: 615 nM

Cc1nc2nc(N)nc(N)c2c(C)c1Cc1ccc(O)cc1
XC50: 236 nM

COc1ccc2ncc(F)c(CCN3CC(O)C(CNCc4ccc5c(c4)OCCO5)C3)c2n1 (stereo unspecified)
XC50: 927 nM

O=C(/C=C/c1ccc(Cl)c(Cl)c1)N1CCC(CN2CCC(c3c(-c4ccccc4)[nH]c4ccccc34)CC2)CC1
XC50: 335 nM

CCc1ccc(O)c(-c2cc(C(=O)Nc3ccc(OC)c(Cl)c3)[nH]n2)c1
XC50: 870 nM

COc1ccc(CCNCCCCCCNCCc2ccc(OC)c(OC)c2Cl)c(Cl)c1OC
XC50: 904 nM

CCCCC(=O)Nc1cc(=O)[nH]c2nc(-c3ccc(Cl)cc3)nn12
XC50: 708 nM

Cc1ccc(NC(=O)NC2CCN(CCCCCNC(=O)/C=C/c3ccc(Cl)c(Cl)c3)CC2)cc1
XC50: 694 nM

N=C(N)NN=Cc1ccc2c(ccc3ccccc32)c1
XC50: 634 nM

O=C(Nc1ccc(OC2CCN(Cc3ccc(F)cc3)C2)c(Cl)c1)c1cccs1 (stereo unspecified)
XC50: 128 nM

O=C(NCCN1Cc2ccccc2C1=O)c1ccc(Oc2ccc(C(=O)NCCN3Cc4ccccc4C3=O)cc2)cc1
XC50: 361 nM

CCN(Cc1ccc(-c2ccc(C(F)(F)F)cc2)cc1)C(=O)Cn1c(SCc2cccc(F)c2F)cc(=O)c2cc(CN3CCCCC3)ccc21
XC50: 801 nM

Cc1nc2nc(N)nc(N)c2c(C)c1Cc1ccc(N)cc1
XC50: 644 nM

O=C(N[C@@H](Cc1ccccc1)[C@H](O)CNC1CCc2ccccc2C1)c1cc(C2CCCC2)cc(N2CCCC2=O)c1 (stereo partly specified)
XC50: 161 nM

CCCCNCc1ccc(-c2nc(CN(C(=O)Nc3cc([N+](=O)[O-])ccc3F)C3Cc4ccccc4C3)cs2)cc1
XC50: 1100 nM

CC(=NNC(S)=NCCc1ccccc1)c1ccccn1
XC50: 218 nM

O=C(NCCCCN1CCC(c2c[nH]c3ccccc23)CC1)c1ccc(-c2ccc(C(F)(F)F)cc2)cc1
XC50: 798 nM

COc1cc(CC(C)NCC(O)c2cccc(C(F)(F)F)c2)ccc1OCc1ccccc1 (stereo unspecified)
XC50: 818 nM

Cc1nnsc1C(=O)Nc1ccc(-c2ccc(-c3nc4ccccc4[nH]3)s2)cc1
XC50: 825 nM

Cc1nc(C)c(CC(=O)Nc2ccc(-c3ccc(-c4nc5cc(C(F)(F)F)ccc5[nH]4)s3)cc2)s1
XC50: 1030 nM

COc1cccc(NC(=O)Cn2c(C)c(C#N)c3ccccc32)c1
XC50: 878 nM

CN1CCCN(Cc2ccc(-c3cccc(NC(=O)c4ccc(C#N)cc4)c3)cc2)CC1
XC50: 744 nM

CCC(c1ccccc1)c1nn2c(-c3cccs3)nnc2s1 (stereo unspecified)
XC50: 167 nM

Cc1cccc2nc(-c3ccc(-c4ccc(CN5CCN(CCN6CCOCC6)CC5)cc4)cc3)[nH]c12
XC50: 231 nM

CCCNCc1ccc(-c2ccc(CN(Cc3ccc4c(c3)OCO4)C(=O)[C@H]3CCCO3)cc2)nc1
XC50: 811 nM

O=C(N[C@@H](Cc1ccccc1)C(=O)NC1CCCc2ccccc21)c1ccc(O)c(-c2cccc(C(F)(F)F)c2)c1 (stereo partly specified)
XC50: 1000 nM

C=C[C@H]1CN2CC[C@H]1C[C@H]2[C@H](O)c1cc(/C=C/c2ccc(F)cc2)nc2ccc(OC)cc12
XC50: 34.2 nM

CC(C)C(=O)NC(c1cccs1)c1cc(Cl)c2cccnc2c1O (stereo unspecified)
XC50: 575 nM

O=C(NCCCCN1CCC(c2ccc(Br)cc2)CC1)c1ccc(NC(=O)c2ccc(Cl)cc2)cc1
XC50: 712 nM

N=C(N)Nc1nc(-c2cccc(NCCCCCCCCON3C(N)=NC(N)=NC34CCCCC4)c2)cs1
XC50: 226 nM

CN(C)CCN(C)Cc1cccc(-c2cccc(NC(=O)c3cccc(C#N)c3)c2)c1
XC50: 873 nM

O=C(Nc1cccc(OC2CCN(Cc3ccccc3)CC2)c1)c1ccc(Cl)c(Cl)c1
XC50: 716 nM

Cc1nc(C)c(-c2ccc(Oc3ccc(OC(F)(F)F)cc3)cc2)c(O)c1I
XC50: 128 nM

O=C(/C=C/c1ccc(Cl)c(Cl)c1)NC1CCC(CN2CCC(c3nc4ccccc4s3)CC2)CC1 (stereo unspecified)
XC50: 1020 nM

CCCCCC(C)C(C)c1cc(O)c2c(c1)OC(C)(C)C=C2c1cc[n+]([O-])cc1 (stereo unspecified)
XC50: 1190 nM

O=c1[nH]c2ccc(Nc3nccc(NCCc4ccccc4)n3)cc2[nH]1
XC50: 1210 nM

CS(=O)(=O)c1ccc(CCNCc2ccc(-c3ccc(CNC4CCN(Cc5ccccc5)CC4)cc3)nc2)cc1
XC50: 249 nM

CCNc1cc(C(=O)N[C@@H](Cc2ccco2)[C@H](O)CNC2CCCCC2)cc(N2CCCCS2(=O)=O)c1
XC50: 1010 nM

COc1ccc2nccc([C@@H](O)CN3CCC(NCc4cc5cc(OC(F)(F)F)ccc5[nH]4)CC3)c2c1
XC50: 127 nM

CCNC(=O)Nc1ccc(-c2cnc(N)c(-c3nc4ccc(OC)cc4[nH]3)c2)cc1
XC50: 499 nM

Cc1ccccc1C1CCN(C2CCC(NC(=O)/C=C/c3cccc(F)c3F)CC2)CC1 (stereo unspecified)
XC50: 1150 nM

Cc1cc(=O)c2cc(Oc3ccc(OC(F)(F)F)cc3)ccc2[nH]1
XC50: 990 nM

O=C(/C=C/c1ccc(Cl)c(Cl)c1)NCC1CCC(N2CCC(c3c[nH]c4ccccc34)CC2)CC1 (stereo unspecified)
XC50: 172 nM

Cc1ccccc1C(=O)NC(NC(=S)Nc1ccc([N+](=O)[O-])cc1)C(Cl)(Cl)Cl (stereo unspecified)
XC50: 745 nM

O=C(Nc1ccc2c(c1)CCC2)c1ccc(N2CCN(c3ccncc3)CC2)cc1
XC50: 1130 nM

CC(Oc1c(C2CCN(CCCCNC(=O)c3ccc(-c4ccc(C#N)cc4)cc3)CC2)ccc2c1CCCC2)C(N)=O (stereo unspecified)
XC50: 678 nM

CCOc1cc(CC)ccc1C1CCN(CCCCNC(=O)c2ccc(NC(=O)c3ccc(Cl)cc3)cc2)CC1
XC50: 743 nM

Cc1cc(Nc2ccc(C)c(Cl)c2)n2nc(C(F)(F)F)nc2n1
XC50: 15.8 nM

Cc1cc2ccccc2c(CON2C(=N)N=C(N)NC2(C)C)c1C
XC50: 9.5 nM

COc1ccc(CC(=O)NC(CCCN2CCC3(CC2)OCc2ccccc23)c2ccc(Cl)c(Cl)c2)cc1 (stereo unspecified)
XC50: 1130 nM

NC1=NC(c2ccccc2)(c2ccccc2)C(=O)N1Cc1ccccc1Br
XC50: 865 nM

CN(C)CCN1CCN(CCCN2c3ccccc3Sc3ccc(C(F)(F)F)cc32)CC1
XC50: 762 nM

O=C(Nc1ccc(S(=O)(=O)N2CCCCCC2)cc1)c1cc(-c2ccccc2O)n[nH]1
XC50: 717 nM

CCC1N=C(N)N=C(N)N1OCCCOc1c(Cl)cc(Cl)cc1Cl (stereo unspecified)
XC50: 3.2 nM

COc1ccc(NC(=O)[C@H](Cc2ccccc2)Nc2cc(C)nc(NCCc3ccccc3)n2)cc1
XC50: 1240 nM

CCCCN(C(=O)c1ccccc1Cl)c1nnc(-c2ccccc2C)s1
XC50: 1020 nM

O=c1cc(NCCCNCc2[nH]c3cc(Cl)cc(Cl)c3c2Cn2cccn2)[nH]c2ccccc12
XC50: 972 nM

C=CCC(C(=O)Nc1ccnc2ccc(OC)cc12)C1CCN(CCCCCCC)CC1 (stereo unspecified)
XC50: 242 nM

OC1CCCN(Cc2ccc(-c3ccc(-c4nc5cc(F)ccc5[nH]4)s3)cc2)C1 (stereo unspecified)
XC50: 851 nM

CC(C)CCNC(=N)c1ccc(OCCCCCOc2ccc(C(=N)NCCC(C)C)cc2)cc1
XC50: 534 nM

O=C(Nc1ccc2c(c1)CCN2C1CCN(Cc2ccc(C(F)(F)F)cc2F)C1)c1ccco1 (stereo unspecified)
XC50: 510 nM

CCOc1ccccc1CCNC(C)Cc1ccc(C(=O)Nc2ccc(CC(C)NCCc3cccc(Cl)c3)cc2)cc1 (stereo unspecified)
XC50: 539 nM

COc1ccc(-c2ccc(S(=O)(=O)Nc3cc4c(cc3OC(C)C)CCN(C)CC4)cc2)cc1
XC50: 686 nM

Cc1[nH]n(-c2cccc(Cl)c2)c(=O)c1-c1ccc(Cl)cc1
XC50: 929 nM

O=C(c1c(-c2[nH]c3ccccc3c2C(=O)C(F)(F)F)[nH]c2ccccc12)C(F)(F)F
XC50: 746 nM

c1nc2nc3c(c(Nc4ccc5c(c4)CCC5)n2n1)CCC3
XC50: 917 nM

O=c1cc(NCCCCNCc2ccc(Br)c(Br)c2)[nH]c2ccccc12
XC50: 856 nM

CC(CO)(CO)NCc1cc2c3ccccc3c(CNC(C)(CO)CO)cc2c2ccccc12
XC50: 723 nM

Cc1cc(-c2cccc3c(C(=O)N4CCc5cc6nccc(N7CCCN(C)CC7)c6cc54)cccc23)cc(C)n1
XC50: 437 nM

CCN(CCCN1CCCCC1)c1cc(C)nc(Nc2ccc(C(F)(F)F)cc2)n1
XC50: 374 nM

Cc1cc(-c2ccc(NC(=O)N3CCc4cc(Br)c(N5CCN(C)CC5)cc43)cc2)ccc1C#N
XC50: 883 nM

COc1ccc2nc(Nc3nc(-c4ccccn4)cs3)sc2c1
XC50: 1120 nM

Cc1cc(=NN=Cc2ccccc2Cl)c2cc(F)ccc2[nH]1
XC50: 750 nM

COc1ccc(CC(=O)Nc2ccc(Nc3nc(C)cc(N4CCCC4)n3)cc2)cc1
XC50: 1110 nM

COCCNCc1ccc(-c2cccc(CNc3ccc(OC)cc3)c2)cc1
XC50: 1040 nM

CCCCCN1CCCC1CNS(=O)(=O)c1cccc(C(=O)Nc2cccc(C#N)c2)c1 (stereo unspecified)
XC50: 978 nM

CCC[C@@H]([C@@H](CC(C)C)C(=O)N[C@@H](CCCCNC(=O)c1ccccn1)C(=O)Nc1nccs1)N(O)C=O
XC50: 46.6 nM

COc1ccc(CNc2nccc3ccc(-c4ccc5nccn5c4)cc23)cc1
XC50: 882 nM

COc1ccc(C(=O)NC2CCN(c3ccnc4cc(Cl)ccc34)C2)cc1 (stereo unspecified)
XC50: 231 nM

Cc1cccc2nc(-c3ccc(-c4cccc(NC(=O)C(C)CN(C)C)c4)s3)[nH]c12 (stereo unspecified)
XC50: 724 nM

CCOc1ccccc1C(=O)Nc1cccc(-c2nc3ncccn3c2C)c1
XC50: 846 nM

O=C(CN1CCN(S(=O)(=O)C=Cc2ccccc2)CC1)Nc1cc(C(F)(F)F)ccc1Cl
XC50: 776 nM

COc1cc2nccc(Nc3ccc(NC(=O)c4ccc(C)cc4)c(O)c3)c2cc1OC
XC50: 174 nM

CC1CCC(C[C@@H](C(=O)N[C@H](C(=O)Nc2nccs2)[C@@H](C)O)[C@H](CCC(F)(F)F)N(O)C=O)CC1 (stereo partly specified)
XC50: 535 nM

Cc1cc(N[C@@H](CC(C)C)C(=O)NC2CCCC2)nc(NCCc2ccc(F)cc2)n1
XC50: 794 nM

O=C(Nc1ccc2c(c1)CCN2C1CCN(Cc2cccc(C(F)(F)F)c2)C1)c1ccco1 (stereo unspecified)
XC50: 564 nM

O=C(Nc1ccc(Cl)cc1)Nc1ccc(-c2cccc(-c3nc4ccccc4[nH]3)c2)cc1
XC50: 157 nM

O=C(Nc1ccc(N2CCCCC2)c(Cl)c1)c1ccco1
XC50: 409 nM

Cc1noc(C)c1C(=O)N1CCc2cc3nccc(N4CCN5CCC[C@H]5C4)c3cc21
XC50: 874 nM

CCCCC(NCC)c1ccc(OCCOc2ccc(C(CCCC)NCC)cc2)cc1 (stereo unspecified)
XC50: 930 nM

CCN(CC)Cc1cc(Nc2c3ccc(Cl)cc3nc3cccc(OC)c23)ccc1O
XC50: 33.4 nM

CCC(C)c1ccc(Nc2nc(C)cc(N(CC)CCCN3CCCCC3)n2)cc1 (stereo unspecified)
XC50: 332 nM
